Assay results published in patent publication US20240165054A1, “TREATMENT” (Verona Pharma PLC, priority 2022, published 2024).

Experiments:
[1] = system: COPD patients; details: vs placebo; population as given per drug; cited from earlier work
[2] = system: patients with moderate to severe COPD; assay: Clinical study of nebulised ensifentrine vs placebo in COPD: moderate/severe COPD exacerbations; assay type: in vivo, human
Protocol: (§1) A clinical study was conducted to determine the efficacy of ensifentrine in treating COPD compared with placebo. Ensifentrine was administered by nebuliser at a dose of 3 mg twice daily (BID) for 24 weeks. The study was a multi-centre, randomized, double-blind, parallel-group, placebo-controlled trial with around 800 patients and 5:3 randomization.
(§2) The study population included patients aged 40-80 years with moderate to severe COPD (FEV1 30%-70% p.n., FEV1/forced vital capacity [FVC] ratio <0.7, with mMRC≥2). The randomization stratified (a) the use of stable background maintenance LAMA or LABA therapy use (approx. 50%. yes or no) and (b) cigarette smoking (current or former). Inhaled corticosteroid (ICS) maintenance therapy was permitted in up to 20% of patients under certain provisions.
(§3) The primary endpoint of the study was change from baseline in average FEV1 area under the curve (AUC)0-12 h post-dose at week 12. Secondary endpoints of the study included: peak FEV1 over 4 hours post-dose at Week 12; morning trough FEV1 at Week 12; and other endpoints including moderate/severe COPD exacerbations frequency and time to first moderate or severe COPD exacerbation over 24 Weeks.
Exacerbations were defined as worsening of 2 or more major symptoms (dyspnea, sputum volume, and sputum purulence) or worsening of any 1 major symptom together with any 1 of the following minor symptoms: sore throat, colds, fever without other cause, and increased cough or wheeze for at least 2 consecutive days. COPD exacerbations were considered to be of moderate severity if treatment with systemic corticosteroids and/or antibiotics was required and were considered to be severe if hospitalization was required.
The investigational product and placebo were provided in 2.5 mL unit dose format in an ampule and administered via a nebuliser.

[3] = system: patients with moderate to severe COPD; assay: Clinical study of nebulised ensifentrine vs placebo in COPD: lung function (FEV1); assay type: in vivo, human; details: all subgroups of COPD patients in the study
Protocol: as §1, §2, §3
Baseline FEV1 is the mean of the two measurements taken before study medication on the day of first dosing, i.e. ≤40 minutes and just prior to dosing, pre-dose on day 1. […]

## CS(=O)(=O)Nc1ccc(C(=O)O[C@@H](Cc2c(Cl)c[n+]([O-])cc2Cl)c2ccc(OC(F)F)c(OCC3CC3)c2)cc1OCC1CC1 [Tanimilast]
[1]
  Rate Reduction (=1-Rate Ratio) of COPD exacerbations: 13-28% all doses

## COc1cc2c(cc1OC)-c1c/c(=N\c3c(C)cc(C)cc3C)n(CCNC(N)=O)c(=O)n1CC2 [Ensifentrine, N-(2-{(2E)-9,10-dimethoxy-4-oxo-2-[(2,4,6-trimethylphenyl)imino]-6,7-dihydro-2H-pyrimido[6,1-α]isoquinolin-3(4H)-yl}ethyl)urea]
[2]; 3 mg BID by nebuliser, over 24 weeks, including 52% of patients on background bronchodilator medications
  Reduction in relative risk of moderate or severe COPD exacerbation vs placebo: approximately 40%
[2]; comparison with literature treatments of Table 4
  Reduction in the frequency of COPD exacerbations compared with other treatments: greater reduction in the frequency of COPD exacerbations than other treatments
[2]; over 24 weeks
  Time to first exacerbation / frequency of COPD exacerbations (conclusion): particularly effective in increasing the time to first exacerbation
[3]
  Improvement in lung function in subgroups: improvement in lung function with ensifentrine that was statistically significant
